# Measurements: the NIST ThermoML archive (doi:10.1016/j.fluid.2005.07.017)
# ± gives the expanded uncertainty stated by the source.
# Experiment: xn = mol fraction of the nth substance listed
# Details: Liquid, Vibrating tube method
structure (smiles),measurement,setting,value
c1ccsc1 [thiophene] + O=C=O,mass density,"322.95 K, 19000 kPa, x2 = 0.199",1032.53 ± 0.43 kg/m3
same,mass density,"322.96 K, 8142 kPa, x2 = 0.5661",964.89 ± 0.43 kg/m3
same,mass density,"322.96 K, 9024 kPa, x2 = 0.5661",967.04 ± 0.43 kg/m3
same,mass density,"322.96 K, 10004 kPa, x2 = 0.5661",969.41 ± 0.43 kg/m3
same,mass density,"322.96 K, 11043 kPa, x2 = 0.5661",971.85 ± 0.43 kg/m3
same,mass density,"322.96 K, 12049 kPa, x2 = 0.5661",974.11 ± 0.43 kg/m3
same,mass density,"322.96 K, 13009 kPa, x2 = 0.5661",976.27 ± 0.43 kg/m3
same,mass density,"322.96 K, 14014 kPa, x2 = 0.5661",978.41 ± 0.43 kg/m3
same,mass density,"322.96 K, 15031 kPa, x2 = 0.5661",980.61 ± 0.43 kg/m3
same,mass density,"322.96 K, 16040 kPa, x2 = 0.5661",982.75 ± 0.43 kg/m3
same,mass density,"322.96 K, 17014 kPa, x2 = 0.5661",984.76 ± 0.43 kg/m3
same,mass density,"322.96 K, 18012 kPa, x2 = 0.5661",986.77 ± 0.42 kg/m3
same,mass density,"322.96 K, 19036 kPa, x2 = 0.5661",988.76 ± 0.42 kg/m3
same,mass density,"323.01 K, 1047 kPa, x2 = 0",1028.97 ± 0.44 kg/m3
same,mass density,"323.01 K, 2059 kPa, x2 = 0",1029.98 ± 0.44 kg/m3
same,mass density,"323.01 K, 3070 kPa, x2 = 0",1031.02 ± 0.44 kg/m3
same,mass density,"323.01 K, 4047 kPa, x2 = 0",1031.99 ± 0.44 kg/m3
same,mass density,"323.01 K, 5002 kPa, x2 = 0",1032.9 ± 0.44 kg/m3
same,mass density,"323.01 K, 6005 kPa, x2 = 0",1033.9 ± 0.44 kg/m3
same,mass density,"323.01 K, 7068 kPa, x2 = 0",1034.92 ± 0.44 kg/m3
same,mass density,"323.01 K, 8021 kPa, x2 = 0",1035.81 ± 0.44 kg/m3
same,mass density,"323.01 K, 9013 kPa, x2 = 0",1036.76 ± 0.44 kg/m3
same,mass density,"323.01 K, 10005 kPa, x2 = 0",1037.67 ± 0.44 kg/m3
same,mass density,"323.01 K, 10991 kPa, x2 = 0",1038.62 ± 0.44 kg/m3
same,mass density,"323.01 K, 12034 kPa, x2 = 0",1039.58 ± 0.44 kg/m3
same,mass density,"323.01 K, 12977 kPa, x2 = 0",1040.44 ± 0.44 kg/m3
same,mass density,"323.01 K, 13999 kPa, x2 = 0",1041.38 ± 0.44 kg/m3
same,mass density,"323.01 K, 14991 kPa, x2 = 0",1042.26 ± 0.44 kg/m3
same,mass density,"323.01 K, 15995 kPa, x2 = 0",1043.17 ± 0.44 kg/m3
same,mass density,"323.01 K, 16998 kPa, x2 = 0",1044.03 ± 0.44 kg/m3
same,mass density,"323.01 K, 17983 kPa, x2 = 0",1044.93 ± 0.44 kg/m3
same,mass density,"323.01 K, 18951 kPa, x2 = 0",1045.78 ± 0.44 kg/m3
same,mass density,"323.06 K, 10088 kPa, x2 = 0.9217",726.5 ± 1 kg/m3
same,mass density,"323.06 K, 11019 kPa, x2 = 0.9217",748.28 ± 0.83 kg/m3
same,mass density,"323.06 K, 12026 kPa, x2 = 0.9217",766.89 ± 0.74 kg/m3
same,mass density,"323.06 K, 13007 kPa, x2 = 0.9217",781.83 ± 0.69 kg/m3
same,mass density,"323.06 K, 14004 kPa, x2 = 0.9217",794.96 ± 0.66 kg/m3
same,mass density,"323.06 K, 15030 kPa, x2 = 0.9217",806.9 ± 0.63 kg/m3
same,mass density,"323.06 K, 16054 kPa, x2 = 0.9217",817.45 ± 0.61 kg/m3
same,mass density,"323.06 K, 17033 kPa, x2 = 0.9217",826.57 ± 0.59 kg/m3
same,mass density,"323.06 K, 18006 kPa, x2 = 0.9217",835.18 ± 0.58 kg/m3
same,mass density,"323.06 K, 19038 kPa, x2 = 0.9217",843.46 ± 0.57 kg/m3
same,mass density,"323.06 K, 20051 kPa, x2 = 0.9217",850.95 ± 0.56 kg/m3
same,mass density,"323.06 K, 21005 kPa, x2 = 0.9217",857.68 ± 0.54 kg/m3
same,mass density,"323.06 K, 22019 kPa, x2 = 0.9217",864.36 ± 0.54 kg/m3
same,mass density,"323.06 K, 23033 kPa, x2 = 0.9217",870.67 ± 0.53 kg/m3
same,mass density,"323.06 K, 24027 kPa, x2 = 0.9217",876.59 ± 0.53 kg/m3
same,mass density,"323.06 K, 24980 kPa, x2 = 0.9217",882.14 ± 0.51 kg/m3
same,mass density,"323.08 K, 6997 kPa, x2 = 0.3818",994.07 ± 0.43 kg/m3
same,mass density,"323.08 K, 8053 kPa, x2 = 0.3818",995.85 ± 0.43 kg/m3
same,mass density,"323.08 K, 9009 kPa, x2 = 0.3818",997.45 ± 0.43 kg/m3
same,mass density,"323.08 K, 10081 kPa, x2 = 0.3818",999.25 ± 0.43 kg/m3
same,mass density,"323.08 K, 11041 kPa, x2 = 0.3818",1000.81 ± 0.43 kg/m3
same,mass density,"323.08 K, 12024 kPa, x2 = 0.3818",1002.4 ± 0.42 kg/m3
same,mass density,"323.08 K, 12998 kPa, x2 = 0.3818",1003.93 ± 0.42 kg/m3
same,mass density,"323.08 K, 14011 kPa, x2 = 0.3818",1005.51 ± 0.42 kg/m3
same,mass density,"323.08 K, 15018 kPa, x2 = 0.3818",1007.08 ± 0.42 kg/m3
same,mass density,"323.08 K, 15936 kPa, x2 = 0.3818",1008.44 ± 0.42 kg/m3
same,mass density,"323.08 K, 17059 kPa, x2 = 0.3818",1010.13 ± 0.42 kg/m3
same,mass density,"323.08 K, 17995 kPa, x2 = 0.3818",1011.52 ± 0.42 kg/m3
same,mass density,"323.08 K, 19010 kPa, x2 = 0.3818",1013.01 ± 0.42 kg/m3
same,mass density,"323.09 K, 8069 kPa, x2 = 0.6996",950.76 ± 0.43 kg/m3
same,mass density,"323.09 K, 9063 kPa, x2 = 0.6996",953.71 ± 0.43 kg/m3
same,mass density,"323.09 K, 10074 kPa, x2 = 0.6996",956.72 ± 0.46 kg/m3
same,mass density,"323.09 K, 11045 kPa, x2 = 0.6996",959.45 ± 0.45 kg/m3
same,mass density,"323.09 K, 11999 kPa, x2 = 0.6996",962.01 ± 0.45 kg/m3
same,mass density,"323.09 K, 13038 kPa, x2 = 0.6996",964.85 ± 0.45 kg/m3
same,mass density,"323.09 K, 14005 kPa, x2 = 0.6996",967.35 ± 0.44 kg/m3
same,mass density,"323.09 K, 14998 kPa, x2 = 0.6996",969.82 ± 0.44 kg/m3
same,mass density,"323.09 K, 16004 kPa, x2 = 0.6996",972.38 ± 0.44 kg/m3
same,mass density,"323.09 K, 17044 kPa, x2 = 0.6996",974.92 ± 0.44 kg/m3
same,mass density,"323.09 K, 17927 kPa, x2 = 0.6996",976.97 ± 0.52 kg/m3
same,mass density,"323.15 K, 101 kPa, x2 = 0",1026.98 ± 0.44 kg/m3
same,mass density,"332.79 K, 7987 kPa, x2 = 0.5661",943.05 ± 0.43 kg/m3
same,mass density,"332.79 K, 9035 kPa, x2 = 0.5661",945.99 ± 0.43 kg/m3
same,mass density,"332.79 K, 10035 kPa, x2 = 0.5661",948.77 ± 0.43 kg/m3
same,mass density,"332.79 K, 11015 kPa, x2 = 0.5661",951.37 ± 0.43 kg/m3
same,mass density,"332.79 K, 12021 kPa, x2 = 0.5661",953.97 ± 0.43 kg/m3
same,mass density,"332.79 K, 13022 kPa, x2 = 0.5661",956.49 ± 0.43 kg/m3
same,mass density,"332.79 K, 14010 kPa, x2 = 0.5661",958.85 ± 0.43 kg/m3
same,mass density,"332.79 K, 15020 kPa, x2 = 0.5661",961.27 ± 0.43 kg/m3
same,mass density,"332.79 K, 16037 kPa, x2 = 0.5661",963.66 ± 0.43 kg/m3
same,mass density,"332.79 K, 17014 kPa, x2 = 0.5661",965.85 ± 0.43 kg/m3
same,mass density,"332.79 K, 18001 kPa, x2 = 0.5661",968.08 ± 0.43 kg/m3
same,mass density,"332.79 K, 19018 kPa, x2 = 0.5661",970.3 ± 0.43 kg/m3
same,mass density,"332.85 K, 1015 kPa, x2 = 0",1016.93 ± 0.44 kg/m3
same,mass density,"332.85 K, 2035 kPa, x2 = 0",1018 ± 0.44 kg/m3
same,mass density,"332.85 K, 3004 kPa, x2 = 0",1019.06 ± 0.44 kg/m3
same,mass density,"332.85 K, 3964 kPa, x2 = 0",1020.05 ± 0.44 kg/m3
same,mass density,"332.85 K, 4991 kPa, x2 = 0",1021.14 ± 0.44 kg/m3
same,mass density,"332.85 K, 5081 kPa, x2 = 0.199",1002.75 ± 0.43 kg/m3
same,mass density,"332.85 K, 6001 kPa, x2 = 0",1022.17 ± 0.44 kg/m3
same,mass density,"332.85 K, 6051 kPa, x2 = 0.199",1004.04 ± 0.43 kg/m3
same,mass density,"332.85 K, 7014 kPa, x2 = 0",1023.21 ± 0.44 kg/m3
same,mass density,"332.85 K, 7075 kPa, x2 = 0.199",1005.38 ± 0.43 kg/m3
same,mass density,"332.85 K, 7998 kPa, x2 = 0",1024.2 ± 0.44 kg/m3
same,mass density,"332.85 K, 8033 kPa, x2 = 0.199",1006.63 ± 0.43 kg/m3
same,mass density,"332.85 K, 9006 kPa, x2 = 0.199",1007.88 ± 0.43 kg/m3
same,mass density,"332.85 K, 9009 kPa, x2 = 0",1025.23 ± 0.44 kg/m3
same,mass density,"332.85 K, 9995 kPa, x2 = 0",1026.19 ± 0.44 kg/m3
same,mass density,"332.85 K, 10006 kPa, x2 = 0.199",1009.13 ± 0.43 kg/m3
same,mass density,"332.85 K, 10989 kPa, x2 = 0",1027.18 ± 0.44 kg/m3
same,mass density,"332.85 K, 11013 kPa, x2 = 0.199",1010.42 ± 0.43 kg/m3
same,mass density,"332.85 K, 12006 kPa, x2 = 0",1028.17 ± 0.44 kg/m3
same,mass density,"332.85 K, 12053 kPa, x2 = 0.199",1011.71 ± 0.43 kg/m3
same,mass density,"332.85 K, 13009 kPa, x2 = 0",1029.18 ± 0.44 kg/m3
